7 compounds from ChEMBL document CHEMBL1201862, “PubChem BioAssay data set” (2004) can be followed below.

Molecules are shown by their SMILES.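 Each compound was tested at five concentrations against cells in 96-well plates for 48 hours. GI50 = concentration required for 50% inhibition of growth.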 Activity calls are given as the source filed them. Rule as the data show it: active = GI50 up to about 1.1 µM and inactive = higher. A value given as a limit tells only on which side of the number the result lay.

Test systems include NCI-H23; SK-MEL-28; OVCAR-5; EKVX; HT-29; NCI-H226; MCF7; OVCAR-3; RPMI-8226; SNB-75; SN12C; HCC 2998; SNB-19; OVCAR-8; MDA-MB-435; SR; NCI-H460; M14; UO-31; DU-145.
Test in all cases: DTP human tumour cell line panel, 48 h

In general, GI50 refers to the concentration giving 50% growth inhibition. On to `CCOC(=O)CCC(NC(=O)c1ccc(Nc2nc3ccccc3nc2-c2cccs2)cc1)C(=O)OCC` (stereo not given), for which the GI50 with NCI-H23 was 32.3 µM (inactive); in the assay on SK-MEL-28, 26.3 µM (inactive); in the assay on OVCAR-5, > 100 µM (inactive); in the assay with EKVX, 31.6 µM (inactive); in the assay with HT-29, 25.6 µM (inactive); in the assay on NCI-H226 it was 26.6 µM (inactive). Besides, the GI50 in the assay with MCF7 is 26.9 µM (inactive); in the assay with OVCAR-3 it was > 100 µM (inactive); with RPMI-8226, 7.53 µM (inactive); in the assay on SNB-75, 36.3 µM (inactive); in the assay with SN12C, 22.1 µM (inactive); in the assay on HCC 2998, 33.9 µM (inactive). The GI50 with SNB-19 is 29.2 µM (inactive); in the assay with OVCAR-8 it was 20.8 µM (inactive); with MDA-MB-435, 30.2 µM (inactive); in the assay on SR, 11.8 µM (inactive); with NCI-H460 it was 25.1 µM (inactive); with M14, > 100 µM (inactive). The values for the GI50 in the assay with UO-31 and in the assay with DU-145 were 30.9 µM (inactive) and 29.8 µM (inactive), respectively.
Regarding `CC(=O)OC/C=C/[C@H](O[Si](C)(C)C(C)(C)C)[C@@H](O)/C=C/COC(C)=O`, the GI50 in the assay with NCI-H23, in the assay with SK-MEL-28, in the assay on OVCAR-5, in the assay with EKVX, with HT-29 and in the assay on NCI-H226 was > 100 µM (inactive) each time. For the same compound, the GI50 in the assay on MCF7 is 49.5 µM (inactive); in the assay on OVCAR-3 it was > 100 µM (inactive); in the assay with RPMI-8226, 20.6 µM (inactive); in the assay with SNB-75, 5.45 µM (inactive); in the assay on SN12C, > 100 µM (inactive); in the assay with HCC 2998, > 100 µM (inactive). For the same compound, the GI50 was > 100 µM (inactive) in the assay on SNB-19; > 100 µM (inactive) in the assay on OVCAR-8; > 100 µM (inactive) in the assay with MDA-MB-435; 30.4 µM (inactive) in the assay on SR; > 100 µM (inactive) with NCI-H460; > 100 µM (inactive) with M14. Besides, the GI50 in the assay with UO-31 and in the assay with DU-145 was > 100 µM (inactive) throughout.
`CCOC(=O)c1cn(-c2ccccc2)c(=S)n2c1nc1ccccc12`: the GI50 in the assay on NCI-H23 is 45.7 µM (inactive); with SK-MEL-28, 28.2 µM (inactive); in the assay on OVCAR-5, > 100 µM (inactive); in the assay on EKVX, 32.8 µM (inactive); in the assay with HT-29, 30.5 µM (inactive); with NCI-H226, 27.3 µM (inactive). Besides, the GI50 in the assay on MCF7 is 35.5 µM (inactive); in the assay with OVCAR-3, 52.2 µM (inactive); in the assay on RPMI-8226, 18.1 µM (inactive); in the assay with SNB-75, > 71.6 µM (inactive); in the assay on SN12C, > 70.1 µM (inactive); in the assay on HCC 2998, > 52.7 µM (inactive). Further, the GI50 is > 66.2 µM (inactive) with SNB-19; 24.4 µM (inactive) with OVCAR-8; 32.5 µM (inactive) in the assay with MDA-MB-435; 13.6 µM (inactive) in the assay on SR; 61.4 µM (inactive) in the assay on NCI-H460; 38.6 µM (inactive) in the assay on M14. Besides, the GI50 was 7.67 µM (inactive) in the assay with UO-31 and 63.2 µM (inactive) in the assay with DU-145.
Take `Cc1cc2oc(C)c(S(=O)(=O)NC(=O)Nc3ccc(Cl)cc3)c(=O)c2c(=O)o1`: the GI50 with NCI-H23, with SK-MEL-28, with OVCAR-5, in the assay on EKVX, with HT-29 and in the assay on NCI-H226 was > 100 µM (inactive) each time. Further, the GI50 in the assay on MCF7, in the assay with OVCAR-3, in the assay with RPMI-8226, in the assay on SNB-75, in the assay on SN12C and with HCC 2998 was > 100 µM (inactive) each time. The GI50 in the assay with SNB-19, in the assay on OVCAR-8, with MDA-MB-435, in the assay with SR, in the assay on NCI-H460 and in the assay on M14 was > 100 µM (inactive) throughout. Besides, the GI50 in the assay on UO-31 and with DU-145 was > 100 µM (inactive) in each case.
Take `CC(=O)OC1(C)C=CC(=O)C=C1`: the GI50 in the assay with NCI-H23 was 27.5 µM (inactive); in the assay on SK-MEL-28 it was 23.6 µM (inactive); in the assay with OVCAR-5, 40.8 µM (inactive); in the assay on EKVX it was 62.5 µM (inactive); in the assay with HT-29, 63.5 µM (inactive); in the assay with NCI-H226, 26.2 µM (inactive). For the same compound, the GI50 in the assay with MCF7 is 20.4 µM (inactive); in the assay on OVCAR-3, 51.8 µM (inactive); in the assay with RPMI-8226, 37.3 µM (inactive); with SNB-75, 84.1 µM (inactive); in the assay on SN12C, 62.7 µM (inactive); in the assay with HCC 2998, > 100 µM (inactive). Besides, the GI50 was 48.2 µM (inactive) with SNB-19; 24.7 µM (inactive) in the assay with OVCAR-8; 29.9 µM (inactive) with MDA-MB-435; 32.7 µM (inactive) in the assay with SR; 25.9 µM (inactive) in the assay on NCI-H460; 32.6 µM (inactive) in the assay on M14. The GI50 was 23.9 µM (inactive) in the assay with UO-31 and 36.6 µM (inactive) in the assay on DU-145.
Turning to `CC1=NN(C(=O)c2ccccc2O)C(=O)/C1=C/c1c(O)ccc2ccccc12`, the GI50 is 1.43 µM (inactive) with NCI-H23; 1.69 µM (inactive) in the assay on SK-MEL-28; 4.11 µM (inactive) in the assay on OVCAR-5; 0.713 µM (active) with EKVX; 10.2 µM (inactive) in the assay on HT-29; 1.53 µM (inactive) in the assay with NCI-H226. Further, the GI50 is 3.31 µM (inactive) in the assay on MCF7; 0.201 µM (active) with OVCAR-3; 1.46 µM (inactive) with RPMI-8226; 2.42 µM (inactive) in the assay on SNB-75; 1.22 µM (inactive) in the assay with SN12C; 12.9 µM (inactive) in the assay with HCC 2998. Further, the GI50 with SNB-19 was 3.26 µM (inactive); in the assay on OVCAR-8 it was 1.01 µM (active); with MDA-MB-435, 4.94 µM (inactive); with SR, 0.364 µM (active); in the assay with NCI-H460, 0.676 µM (active); with M14 it was 0.587 µM (active). Besides, the GI50 was 0.968 µM (active) in the assay on UO-31 and 0.607 µM (active) in the assay on DU-145.
For `O=P1(N(CCCl)CCCl)NCCCO1` (stereo not given) [CYCLOPHOSPHAMIDE ANHYDROUS], the GI50 was > 235 µM (inactive) in the assay on NCI-H23; > 250 µM (inactive) in the assay on SK-MEL-28; > 239 µM (inactive) with OVCAR-5; > 250 µM (inactive) in the assay with EKVX; > 226 µM (inactive) in the assay on HT-29; 249 µM (inactive) in the assay with NCI-H226. Also, the GI50 with MCF7 is > 250 µM (inactive); in the assay with OVCAR-3, > 243 µM (inactive); in the assay with RPMI-8226 it was > 250 µM (inactive); with SNB-75, > 232 µM (inactive); in the assay on SN12C, > 250 µM (inactive); in the assay on HCC 2998, 193 µM (inactive). In addition, the GI50 with SNB-19 is > 250 µM (inactive); in the assay on OVCAR-8, > 238 µM (inactive); in the assay on MDA-MB-435, > 250 µM (inactive); with SR, > 250 µM (inactive); in the assay on NCI-H460 it was > 238 µM (inactive); in the assay with M14, > 250 µM (inactive). The GI50 with UO-31 and in the assay on DU-145 was > 250 µM (inactive) each time.
